The source made the active and inactive calls.
Tests used:
[1] = molecular target: T1, Rac GTPase-activating protein 1 (Homo sapiens, UniProt Q9H0H5); assay: blockers of MgcRacGAP-driven Rac1 GTP hydrolysis – biochemical, ADP Hunter fluorescence, primary and confirmatory, confirmation (AID 624330); assay type: functional
T1 sequence (Q9H0H5 whole entry): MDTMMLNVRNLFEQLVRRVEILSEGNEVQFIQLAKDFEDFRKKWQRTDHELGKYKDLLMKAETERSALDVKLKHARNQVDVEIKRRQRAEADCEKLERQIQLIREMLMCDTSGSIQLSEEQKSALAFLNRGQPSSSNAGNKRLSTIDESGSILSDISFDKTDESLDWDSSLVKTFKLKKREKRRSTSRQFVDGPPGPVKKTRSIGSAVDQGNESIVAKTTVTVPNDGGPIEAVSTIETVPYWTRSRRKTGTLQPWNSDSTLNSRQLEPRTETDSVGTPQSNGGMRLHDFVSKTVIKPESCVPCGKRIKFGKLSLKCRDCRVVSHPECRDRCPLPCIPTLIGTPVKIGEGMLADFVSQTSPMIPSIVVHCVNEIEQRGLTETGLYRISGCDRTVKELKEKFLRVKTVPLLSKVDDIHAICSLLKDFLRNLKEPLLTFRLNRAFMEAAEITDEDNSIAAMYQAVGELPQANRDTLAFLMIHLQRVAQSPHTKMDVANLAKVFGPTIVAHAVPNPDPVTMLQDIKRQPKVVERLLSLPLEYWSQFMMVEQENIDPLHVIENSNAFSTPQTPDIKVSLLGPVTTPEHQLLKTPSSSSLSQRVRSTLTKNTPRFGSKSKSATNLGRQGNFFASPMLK

[2] = molecular target: Paired box protein Pax-8 (Homo sapiens, UniProt Q06710); assay: PAX8 transcriptional activity inhibition in RMG-I – RMG-I cells, luciferase, cherry-pick, dose response (AID 687027); assay type: functional, cell-based;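 note: luciferase reporter driven by Pax8 target thyroperoxidase promoter measured by SteadyGlo luminescence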
Sequence of Paired box protein Pax-8 (Q06710 whole entry): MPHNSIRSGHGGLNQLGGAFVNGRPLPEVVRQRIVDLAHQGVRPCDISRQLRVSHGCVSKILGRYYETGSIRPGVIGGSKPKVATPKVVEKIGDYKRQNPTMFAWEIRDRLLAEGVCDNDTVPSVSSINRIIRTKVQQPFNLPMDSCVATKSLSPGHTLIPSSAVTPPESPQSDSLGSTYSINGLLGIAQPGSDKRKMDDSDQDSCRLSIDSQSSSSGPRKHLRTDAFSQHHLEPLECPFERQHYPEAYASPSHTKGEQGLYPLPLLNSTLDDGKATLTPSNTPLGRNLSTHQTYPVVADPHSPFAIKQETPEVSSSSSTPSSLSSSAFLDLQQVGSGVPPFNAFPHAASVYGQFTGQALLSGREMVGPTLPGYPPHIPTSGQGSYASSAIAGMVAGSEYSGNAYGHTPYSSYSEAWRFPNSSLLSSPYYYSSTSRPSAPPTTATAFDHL

[3] = molecular target: T2, Heat shock factor protein 1 (Mus musculus, UniProt P38532); assay: enhancement of HSF1-driven luciferase signal – cell-based, NIH3T3, luminescence, dose retest, confirmation (AID 435004); assay type: functional;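 note: stress induced by proteasome inhibitor MG132 added 30 min after compound; luciferase reporter driven by HSF1 response element in NIH3T3 cells; actives raise luminescence as potentiators of the MG132 stress response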
T2 sequence (P38532 whole entry): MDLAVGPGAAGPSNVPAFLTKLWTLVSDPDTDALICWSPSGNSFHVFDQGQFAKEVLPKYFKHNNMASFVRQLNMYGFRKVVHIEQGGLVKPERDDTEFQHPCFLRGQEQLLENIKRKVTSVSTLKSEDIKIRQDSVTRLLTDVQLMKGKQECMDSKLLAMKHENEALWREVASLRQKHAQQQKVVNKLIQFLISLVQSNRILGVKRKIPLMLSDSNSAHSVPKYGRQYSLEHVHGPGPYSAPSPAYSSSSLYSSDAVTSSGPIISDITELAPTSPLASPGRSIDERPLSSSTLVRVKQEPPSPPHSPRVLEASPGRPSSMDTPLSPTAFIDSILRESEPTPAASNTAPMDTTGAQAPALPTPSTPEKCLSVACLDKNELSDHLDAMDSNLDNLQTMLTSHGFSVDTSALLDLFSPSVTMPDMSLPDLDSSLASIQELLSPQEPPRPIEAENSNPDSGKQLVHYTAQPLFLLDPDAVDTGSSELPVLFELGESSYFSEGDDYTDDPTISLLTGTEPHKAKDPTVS

[4] = molecular target: T2, Heat shock factor protein 1; assay: decrease of HSF1-responsive luciferase luminescence – cell-based, NIH3T3, dose retest, confirmation (AID 2382); assay type: functional;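 note: NIH3T3 fibroblasts with HSF1-driven luciferase reporter stressed by proteasome inhibitor MG132; luminescence from HSF1-driven luciferase expression after 8 hours of MG132 stress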
[5] = molecular target: T3, Corticotropin-releasing factor receptor 2/Corticotropin-releasing factor-binding protein (Homo sapiens, UniProt P24387+Q13324); assay: activators of CRF receptor 2 with binding protein – uHTS hits, confirmation (AID 602473); assay type: functional; settings: read-out: EC50_Mean
T3 sequence (Q13324 whole entry): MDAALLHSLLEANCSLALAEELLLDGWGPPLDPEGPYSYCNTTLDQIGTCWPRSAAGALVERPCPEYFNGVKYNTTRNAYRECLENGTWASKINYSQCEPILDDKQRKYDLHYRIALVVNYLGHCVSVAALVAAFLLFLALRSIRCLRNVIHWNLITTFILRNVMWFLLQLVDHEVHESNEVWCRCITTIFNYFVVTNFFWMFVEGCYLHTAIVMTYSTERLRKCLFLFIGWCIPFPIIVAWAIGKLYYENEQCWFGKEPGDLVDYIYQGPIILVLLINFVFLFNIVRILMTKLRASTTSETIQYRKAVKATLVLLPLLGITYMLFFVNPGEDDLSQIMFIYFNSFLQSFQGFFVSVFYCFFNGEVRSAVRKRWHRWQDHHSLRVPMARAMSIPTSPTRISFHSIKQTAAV
T3 sequence (P24387 whole entry): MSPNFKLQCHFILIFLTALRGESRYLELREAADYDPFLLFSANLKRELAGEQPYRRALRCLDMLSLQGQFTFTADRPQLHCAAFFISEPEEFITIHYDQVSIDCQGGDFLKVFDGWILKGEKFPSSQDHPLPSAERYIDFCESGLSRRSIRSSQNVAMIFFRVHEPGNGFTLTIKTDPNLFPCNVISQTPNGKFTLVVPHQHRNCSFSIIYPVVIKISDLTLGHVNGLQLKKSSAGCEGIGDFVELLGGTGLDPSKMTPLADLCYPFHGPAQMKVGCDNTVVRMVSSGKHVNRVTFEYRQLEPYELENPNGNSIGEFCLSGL

[6] = molecular target: Cytochrome P450 2C19 (Homo sapiens, UniProt P33261); assay: Cytochrome panel assay with activity outcomes. Panel member name: p450-cyp2c19 Compounds with AC50 equal or less than 10 uM are considered active; assay type: functional; settings: read-out: AC50
Sequence of Cytochrome P450 2C19 (P33261 whole entry): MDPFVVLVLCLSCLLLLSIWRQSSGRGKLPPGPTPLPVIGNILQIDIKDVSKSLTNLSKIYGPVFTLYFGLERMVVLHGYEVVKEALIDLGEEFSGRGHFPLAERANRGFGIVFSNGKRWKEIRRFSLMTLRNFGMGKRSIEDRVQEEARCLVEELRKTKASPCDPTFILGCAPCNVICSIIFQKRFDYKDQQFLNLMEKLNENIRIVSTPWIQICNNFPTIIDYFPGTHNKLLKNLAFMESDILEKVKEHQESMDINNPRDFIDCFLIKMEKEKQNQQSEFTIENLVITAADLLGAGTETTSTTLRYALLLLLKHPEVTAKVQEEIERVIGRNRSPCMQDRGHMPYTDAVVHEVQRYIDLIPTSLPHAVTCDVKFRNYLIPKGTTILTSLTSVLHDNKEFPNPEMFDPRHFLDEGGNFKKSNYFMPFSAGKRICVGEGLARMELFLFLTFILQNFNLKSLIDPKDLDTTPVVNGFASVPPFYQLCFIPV

[7] = molecular target: Cytochrome P450 3A4 (Homo sapiens, UniProt P08684);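 note: CYP3A4 tested as one member of a cytochrome P450 panel screen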
Sequence of Cytochrome P450 3A4 (P08684 whole entry): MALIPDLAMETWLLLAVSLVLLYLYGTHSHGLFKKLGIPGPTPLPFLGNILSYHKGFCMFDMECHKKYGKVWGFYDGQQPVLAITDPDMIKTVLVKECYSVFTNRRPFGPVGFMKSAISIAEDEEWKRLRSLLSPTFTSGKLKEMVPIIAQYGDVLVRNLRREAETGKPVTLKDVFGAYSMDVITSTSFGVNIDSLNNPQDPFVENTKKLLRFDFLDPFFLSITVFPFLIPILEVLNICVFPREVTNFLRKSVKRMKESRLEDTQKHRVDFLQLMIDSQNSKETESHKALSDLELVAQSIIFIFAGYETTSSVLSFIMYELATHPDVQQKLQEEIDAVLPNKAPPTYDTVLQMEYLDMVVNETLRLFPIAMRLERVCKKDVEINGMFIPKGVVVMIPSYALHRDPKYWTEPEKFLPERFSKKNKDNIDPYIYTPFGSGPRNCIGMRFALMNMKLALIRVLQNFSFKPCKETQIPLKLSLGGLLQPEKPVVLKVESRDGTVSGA

[8] = molecular target: Cytochrome P450 2C9 (Homo sapiens, UniProt P11712)
Sequence of Cytochrome P450 2C9 (P11712 whole entry): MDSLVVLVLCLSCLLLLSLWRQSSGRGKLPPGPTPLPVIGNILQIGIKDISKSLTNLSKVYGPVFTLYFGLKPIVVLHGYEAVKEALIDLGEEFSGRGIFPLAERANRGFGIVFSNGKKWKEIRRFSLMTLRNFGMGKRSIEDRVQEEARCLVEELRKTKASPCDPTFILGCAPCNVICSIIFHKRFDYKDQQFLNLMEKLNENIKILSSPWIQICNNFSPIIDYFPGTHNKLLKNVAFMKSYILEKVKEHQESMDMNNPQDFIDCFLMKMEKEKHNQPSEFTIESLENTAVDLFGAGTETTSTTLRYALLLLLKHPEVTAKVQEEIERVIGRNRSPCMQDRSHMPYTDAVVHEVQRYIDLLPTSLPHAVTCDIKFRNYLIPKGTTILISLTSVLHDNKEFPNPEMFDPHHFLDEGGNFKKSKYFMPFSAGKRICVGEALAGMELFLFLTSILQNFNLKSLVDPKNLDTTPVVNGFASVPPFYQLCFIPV

[9] = test system: Streptococcus sp. 'group A'; assay: Streptococcus pyogenes SK(-)GAS viability under kanamycin – luminescence, BacTiterGlo, confirmation, counter-screen for streptokinase expression inhibitor project, dose response (AID 1900); assay type: functional, organism-based; settings: Streptococcus sp. 'group A'
[10] = test system: Streptococcus; assay: GAS UMAA2166 growth inhibition – luminescence, BacTiterGlo, counter-screen for streptokinase expression inhibitor project, dose response (AID 1915); assay type: functional, organism-based; settings: Streptococcus;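 note: potency for reduction of bacterial viability or growth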
[11] = Luminescence Cell-Based Dose Response HTS to Identify Activators of Luciferase Translation or Activity in H4 […] Cells. [Related pubchem assays: 1829 (Project Summary), 1814 (Primary HTS)]; assay type: functional
[12] = test system: H4; assay: Luminescence Cell-Based Dose Response HTS to Identify Activators of 5'UTR Stem-Loop Driven Prion Protein mRNA Translation in H4 Neuroglioblastoma Cells. [Related pubchem assays: 1829 (Project Summary), 1814 (Primary HTS)]; assay type: functional; settings: Homo sapiens

COc1ccc(N2CCN(C(CNS(=O)(=O)c3cccs3)c3cccnc3)CC2)cc1 (configuration not stated)
IC50 [1]: 120 µM (active)

CCN(CC)CCCNCC(=O)Nc1cc(C)on1
IC50 [1]: 99.4 µM (active)

COc1cc(/C=N\NC(=O)c2ccc(-c3ccccc3)cc2)cc(OC)c1OC(C)=O
AC50 [2]: 0.728 µM (active)

COCCN(CCOC)c1nc(-c2ccc(C)cc2)nc2ccccc12
EC50 [3]: > 260 µM (inactive)

O=C(Cc1ccccn1)N1CCCCN2[C@@H](CO)[C@@H](c3ccc(-c4ccc(F)cc4)cc3)[C@@H]2C1
AC50 [2]: 22.6 µM (active)

COC(=O)c1ccccc1N=C(S)N(Cc1ccc2c(c1)OCO2)Cc1cc2ccc(OC)cc2nc1O
EC50 [3]: > 260 µM (inactive)

N#C/C(=C/c1cc(Br)cs1)C(=O)NCC1CCCO1 (configuration not stated)
EC50 [4]: > 195 µM (not active)

Brc1ccccc1OCCCCCN1CCOCC1
IC50 [1]: 146 µM (active)

Cn1cccc1/C=N/N1CCN(Cc2ccccc2Cl)CC1
IC50 [1]: 82.1 µM (active)

CCOc1cc(/C=N/NC(=O)c2cc(C3CC3)[nH]n2)ccc1O
IC50 [1]: 54.9 µM (active)

O=C(CN1C(=O)NC2(CCCc3ccccc32)C1=O)Nc1cccc(S(=O)(=O)N2CCCCC2)c1 (configuration not stated)
EC50 [3]: > 260 µM (inactive)

COc1cc(CNc2ncnc3c2ncn3[C@H]2CN(Cc3ccc(-c4ccccc4)cc3)C[C@@H](CO)O2)cc(OC)c1OC
AC50 [2]: 7.36 µM (active)

OCC1(CCCc2ccccc2)CCN(C2CCSCC2)CC1
EC50 [3]: > 260 µM (inactive)

CCN(C(=O)c1ccc2c(SCC(=O)O)c3c(nc2c1)CCC3)c1cc(Cl)ccc1OC
EC50 [4]: > 195 µM (not active)

Cn1c(N)c(-c2ccccc2)c2ccc([N+](=O)[O-])cc2c1=O
EC50 [5]: 4.5 µM (active)

Cc1ccccc1NC(=O)COC(=O)c1ccc(S(C)(=O)=O)c([N+](=O)[O-])c1
EC50 [4]: 6.14 µM (active)

O=[N+]([O-])c1cccc(-c2ncc3ccccn23)c1
EC50 [3]: > 260 µM (inactive)

CC(C)N1CCC(N2CCN(C3CCCC3)CC2CCO)CC1 (configuration not stated)
EC50 [4]: > 195 µM (not active)

O=C(CNc1ccc2c(c1)OCO2)N/N=C\c1ccccc1Cl
IC50 [1]: 114 µM (active)

O=C(O)c1ccn(Cn2cnc3ccccc32)n1
EC50 [4]: > 195 µM (not active)

O=C(c1ccc(Cl)c(S(=O)(=O)N2CCCCCC2)c1)N1CCN(c2ccc(O)cc2)CC1
IC50 [1]: 33.7 µM (active)

CCN(CC)S(=O)(=O)c1cccc(-c2nnc(SCC(N)=O)n2CCc2ccccc2)c1
EC50 [4]: > 195 µM (not active)

Cc1ccccc1N1CCN(S(=O)(=O)Cc2ccccc2)CC1
EC50 [3]: > 260 µM (inactive)

COc1cc(/C=C2\SC(=S)N(NC(=O)c3ccc(O)cc3)C2=O)ccc1O
IC50 [1]: 59 µM (active)

CC12CCC3C(CC=C4CC(O)CCC43C)C1C/C(=C\N1CCCC1)C2=O (configuration not stated)
EC50 [3]: > 260 µM (inactive)

NC(S)=NNc1ccnc2cc(Cl)ccc12
IC50 [1]: 110 µM (active)

C=CCn1c(=O)c2c3c(sc2n2c(Nc4ccccc4)nnc12)CCCC3
EC50 [3]: > 260 µM (inactive)

Cc1nc([N+](=O)[O-])cn1-c1ccc(N)cc1
EC50 [4]: > 195 µM (not active)

Nc1ccc(C(=O)N/N=C/c2ccccc2)cc1
AC50 [6]: 15.8 µM (inconclusive) | AC50 [7]: 15.8 µM (inconclusive) | AC50 [8]: 0.282 µM (inconclusive)

CCOC(=O)C1(CC2CCCCO2)CCN(Cc2nc3ccccc3[nH]2)CC1 (configuration not stated)
EC50 [4]: > 195 µM (not active)

CCOc1cc(C=NNC(=O)CCCC(=O)NN=Cc2ccc(O)c(OCC)c2)ccc1O
IC50 [1]: 50.4 µM (active)

Cc1c(N=C2N=C(NC(=O)c3ccc(F)cc3)c3ccccc32)c(=O)n(-c2ccccc2)n1C
EC50 [5]: 15.6 µM (active)

Cc1ccc2[nH]c(SCC(=O)c3ccc(Cl)s3)nc2c1
EC50 [9]: > 150 µM (not active) | EC50 [10]: > 150 µM (not active)

Cc1nc2ccc(C(=O)Nc3ccc(N(C)C)cc3)cc2s1
IC50 [1]: 39.3 µM (active)

O=C(Cn1[nH]c(=O)c2ccccc2c1=O)OCC(=O)c1ccccc1Cl
EC50 [4]: > 195 µM (not active)

CC(=O)Nc1ccc(NC(=O)CSc2cn(CC(=O)N3CCOCC3)c3ccccc23)cc1
EC50 [4]: > 195 µM (not active)

O=C(NCc1ccccc1)[C@]1(C(F)(F)F)C[C@H](CCc2ccccc2)CCCO1
EC50 [4]: > 195 µM (not active)

Cc1cc(/C=C(\C#N)C(=O)NC2CC2)c(C)[nH]1
EC50 [11]: 0.857 µM (active) | EC50 [12]: > 120 µM (not active)

Cc1ccc(OC(=O)c2ccc3nc(C)sc3c2)cc1
EC50 [4]: 0.737 µM (active)

Cc1cccc(C)c1NC(=O)CN1C(=O)NC(C)(CCc2ccccc2)C1=O (configuration not stated)
EC50 [4]: > 195 µM (not active)

COc1ccc(O/C(=N\S(=O)(=O)c2ccccc2)c2ccccc2)cc1
IC50 [1]: 45.5 µM (active)

CC(=O)c1cnn(-c2c(Cl)cc(Cl)cc2Cl)c1C
EC50 [4]: > 195 µM (not active)

CC(=O)c1ccccc1NC(=O)C1C2CCC(O2)C1C(=O)O (configuration not stated)
EC50 [3]: > 260 µM (inactive)

CCOc1cccc(C2NCc3ccccc3-n3cccc32)c1O (configuration not stated)
EC50 [3]: > 260 µM (inactive)

O=C(NCc1cc(C(F)(F)F)cc(C(F)(F)F)c1)C1CC(c2cccc([N+](=O)[O-])c2)=NO1 (configuration not stated)
EC50 [3]: 38.4 µM (active)

CCC(=O)N1N/C(=C2/C(=O)NC(=O)N(CCc3ccccc3)C2=O)CC1c1ccc(OC)c(OC)c1 (configuration not stated)
EC50 [9]: 1.4 µM (active) | EC50 [10]: 26.4 µM (active)

O=C(CSCc1ccc(Br)cc1)N1CCCC1
EC50 [3]: 108 µM (active)

Reference: ChEMBL document CHEMBL1201862, “PubChem BioAssay data set” (2004)
